Experimental data taken from patent publication US20110136880A1, “Latrunculin-Based Macrolides and Their Uses” (priority 2009, published 2011).

Tested on: β-catenin in C2C12 cells
Experiment: Wnt/β-catenin signaling, β-catenin levels in C2C12 cells
Format: cell-based
Source text: Effects on Wnt/β-catenin. […] These two compounds affected both alkaline phosphatase and β-catenin levels in C2C12 cells.

Question: What does the source list for `COc1ccc(CC(=O)N2C(=O)SC[C@H]2[C@@]2(OC)C[C@H]3C[C@@H](CC[C@H](C)/C=C\C=C\CC/C(C)=C\C(=O)O3)O2)cc1` [Compound 11, 17-O-Methyl-N-(7′-methoxyphenylacetyl)latrunculin A]?
Answer: Wnt/β-catenin signaling: strongly inhibited; IC50 (Mus musculus): 7 nM
